Each structure is given as a SMILES string. pIC50: −log10 of the molar value.

The experiment addresses T1, Human DGAT1 (Homo sapiens, UniProt O75907).
T1 construct: my translation of the primer: M-G-DYKDDDD-GDRGSSRRR) (N); made in house; host or cells: Sf9 insect cells (recombinant baculovirus BAC-DGAT1, pFASTBAC1); microsome fraction
T1 sequence (O75907 1-488): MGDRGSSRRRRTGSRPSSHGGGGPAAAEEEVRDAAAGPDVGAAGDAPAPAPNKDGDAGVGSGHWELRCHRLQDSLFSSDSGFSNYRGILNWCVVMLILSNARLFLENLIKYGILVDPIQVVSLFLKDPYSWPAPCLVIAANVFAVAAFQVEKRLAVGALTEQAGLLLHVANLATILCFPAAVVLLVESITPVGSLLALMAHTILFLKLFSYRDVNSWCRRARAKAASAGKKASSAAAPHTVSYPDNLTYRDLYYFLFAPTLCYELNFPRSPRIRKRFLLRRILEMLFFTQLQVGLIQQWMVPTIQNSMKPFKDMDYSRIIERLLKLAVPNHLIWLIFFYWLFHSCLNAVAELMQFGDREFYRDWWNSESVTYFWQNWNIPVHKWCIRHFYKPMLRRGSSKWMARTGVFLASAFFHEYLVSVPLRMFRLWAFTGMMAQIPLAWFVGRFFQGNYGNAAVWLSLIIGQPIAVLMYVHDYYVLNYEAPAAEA
In words: DGAT inhibitory activity: [14C]-triglyceride synthesis by DGAT1 high expression Sf9 microsome. The format is biochemical. The conditions noted are these: Table 2, 25 μM dioleoylglycerol, 25 μM [14C]-Oleoyl-CoA, 32° C., 15 min, read-out: DGAT inhibitory activity (according to IC50). The method, boiled down: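 DGAT1 was overexpressed from recombinant baculovirus in Sf9 cells, and microsomes from these cells were the enzyme source. Reactions ran in 100 mM Tris-HCl pH 7.5, 250 mM sucrose, 150 mM MgCl2 and 0.01% BSA. [14C]-triglyceride was extracted into chloroform, separated by TLC and quantified by imaging plate, with inhibition calculated against control and blank (no microsome) counts.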
By pIC50 is commonly meant −log10 of the IC50, conventionally taken in molar units. For the compound `CCOc1ccc(C(=O)CCC(=O)Nc2cc(-c3ccccc3C(=O)O)cc(-c3ccccc3)n2)cc1OCC` [Example 148, 2-(2-{[4-(3,4-diethoxyphenyl)-4-oxobutanoyl]amino}-6-phenylpyridin-4-yl)benzoic acid], the pIC50 was 5.00 to 6.30. The same measure for `CCOc1ccc(C(=O)CCC(=O)Nc2cc(-c3ccc(O)c(OC)c3)cc(-c3ccccc3)n2)cc1OCC` [Example 149, 4-(3,4-diethoxyphenyl)-N-[4-(4-hydroxy-3-methoxyphenyl)-6-phenylpyridin-2-yl]-4-oxobutanamide]: 7.30 to 8.00. Take `CCOc1ccc(C(=O)CCC(=O)Nc2cc(-c3cc(OC)c(OC)c(OC)c3)cc(-c3ccccc3)n2)cc1OCC` [Example 150, 4-(3,4-diethoxyphenyl)-4-oxo-N-[6-phenyl-4-(3,4,5-trimethoxyphenyl)pyridin-2-yl]butanamide]: the pIC50 is 5.00 to 6.30. `CCOc1ccc(C(=O)CCC(=O)Nc2cc(-c3cc(C)c(O)c(C)c3)cc(-c3ccccc3)n2)cc1OCC` [Example 151, 4-(3,4-diethoxyphenyl)-N-[4-(4-hydroxy-3,5-dimethylphenyl)-6-phenylpyridin-2-yl]-4-oxobutanamide]: the pIC50 is 7.30 to 8.00. Regarding `CCCCCC/C=C/c1cc(NC(=O)CCC(=O)c2ccc(OCC)c(OCC)c2)nc(-c2ccccc2)c1` [Example 152, 4-(3,4-diethoxyphenyl)-N-{4-[(1E)-octa-1-en-1-yl]-6-phenylpyridin-2-yl}-4-oxobutanamide], the pIC50 is 5.00 to 6.30. The same measure for `Cn1cc(-c2cc(NC(=O)CCC(=O)c3ccc4c(c3)CCO4)nc(-c3ccccc3)c2)cn1` [Example 153, 4-(2,3-dihydro-1-benzofuran-5-yl)-N-[4-(1-methyl-1H-pyrazol-4-yl)-6-phenylpyridin-2-yl]-4-oxobutanamide]: 5.00 to 6.30. Turning to `O=C(CCC(=O)c1ccc2c(c1)CCO2)Nc1cc(-c2ccc3[nH]ccc3c2)cc(-c2ccccc2)n1` [Example 154, 4-(2,3-dihydro-1-benzofuran-5-yl)-N-[4-(1H-indol-5-yl)-6-phenylpyridin-2-yl]-4-oxobutanamide], the pIC50 was 7.30 to 8.00. In the case of `COc1ccc(-c2cc(NC(=O)CCC(=O)c3ccc4c(c3)CCO4)nc(-c3ccccc3)c2)cc1` [Example 155, 4-(2,3-dihydro-1-benzofuran-5-yl)-N-[4-(4-methoxyphenyl)-6-phenylpyridin-2-yl]-4-oxobutanamide] it was 6.30 to 7.30.

With `O=C(CCC(=O)c1ccc2c(c1)CCO2)Nc1cc(-c2ccc(CO)cc2)cc(-c2ccccc2)n1` [Example 156, 4-(2,3-dihydro-1-benzofuran-5-yl)-N-{4-[4-(hydroxymethyl)phenyl]-6-phenylpyridin-2-yl}-4-oxobutanamide], the pIC50 is 6.30 to 7.30. With `O=C(O)CCc1ccc(-c2cc(NC(=O)CCC(=O)c3ccc4c(c3)CCO4)nc(-c3ccccc3)c2)cc1` [Example 157, 3-[4-(2-{[4-(2,3-dihydro-1-benzofuran-5-yl)-4-oxobutanoyl]amino}-6-phenylpyridin-4-yl)phenyl]propanoic acid], the pIC50 was 5.00 to 6.30. Consider `COC(=O)CCc1ccc(-c2cc(NC(=O)CCC(=O)c3ccc4c(c3)CCO4)nc(-c3ccccc3)c2)cc1` [Example 158, methyl 3-[4-(2-{[4-(2,3-dihydro-1-benzofuran-5-yl)-4-oxobutanoyl]amino}-6-phenylpyridin-4-yl)phenyl]propanoate], for which the pIC50 was 6.30 to 7.30. As for `COC(=O)/C=C/c1ccc(-c2cc(NC(=O)CCC(=O)c3ccc4c(c3)CCO4)nc(-c3ccccc3)c2)cc1` [Example 159, methyl (2E)-3-[4-(2-{[4-(2,3-dihydro-1-benzofuran-5-yl)-4-oxobutanoyl]amino}-6-phenylpyridin-4-yl)phenyl]acrylate], the pIC50 was 5.00 to 6.30. Consider `O=C(CCC(=O)c1ccc2c(c1)CCO2)Nc1cc(-c2ccc(N3CCOCC3)cc2)cc(-c2ccccc2)n1` [Example 160, 4-(2,3-dihydro-1-benzofuran-5-yl)-N-[4-(4-(morpholin-4-yl)phenyl)-6-phenylpyridin-2-yl]-4-oxobutanamide], for which the pIC50 is 5.00 to 6.30. `O=C(CCC(=O)c1ccc2c(c1)CCO2)Nc1cc(-c2ccc(CN3CCOCC3)cc2)cc(-c2ccccc2)n1` [Example 161, 4-(2,3-dihydro-1-benzofuran-5-yl)-N-{4-[4-(morpholin-4-ylmethyl)phenyl]-6-phenylpyridin-2-yl}-4-oxobutanamide]: the pIC50 is 5.00 to 6.30. Turning to `CN(C)c1ccc(-c2cc(NC(=O)CCC(=O)c3ccc4c(c3)CCO4)nc(-c3ccccc3)c2)cc1` [Example 162, 4-(2,3-dihydro-1-benzofuran-5-yl)-N-{4-[4-(dimethylamino)phenyl]-6-phenylpyridin-2-yl}-4-oxobutanamide], the pIC50 is 6.30 to 7.30. Consider `N#Cc1cccc(-c2cc(NC(=O)CCC(=O)c3ccc4c(c3)CCO4)nc(-c3ccccc3)c2)c1` [Example 163, N-[4-(3-cyanophenyl)-6-phenylpyridin-2-yl]-4-(2,3-dihydro-1-benzofuran-5-yl)-4-oxobutanamide], for which the pIC50 is 6.30 to 7.30. In the case of `N#CCc1cccc(-c2cc(NC(=O)CCC(=O)c3ccc4c(c3)CCO4)nc(-c3ccccc3)c2)c1` [Example 164, N-{4-[3-(cyanomethyl)phenyl]-6-phenylpyridin-2-yl}-4-(2,3-dihydro-1-benzofuran-5-yl)-4-oxobutanamide], the pIC50 is 7.30 to 8.00. The same measure for `O=C(CCC(=O)c1ccc2c(c1)CCO2)Nc1cc(-c2cccc(O)c2)cc(-c2ccccc2)n1` [Example 165, 4-(2,3-dihydro-1-benzofuran-5-yl)-N-[4-(3-hydroxyphenyl)-6-phenylpyridin-2-yl]-4-oxobutanamide]: 7.30 to 8.00; for `CCCCOc1cccc(-c2cc(NC(=O)CCC(=O)c3ccc4c(c3)CCO4)nc(-c3ccccc3)c2)c1` [Example 166, N-[4-(3-butoxyphenyl)-6-phenylpyridin-2-yl]-4-(2,3-dihydro-1-benzofuran-5-yl)-4-oxobutanamide]: 5.00 to 6.30. On to `O=C(CCC(=O)c1ccc2c(c1)CCO2)Nc1cc(-c2cccc(CO)c2)cc(-c2ccccc2)n1` [Example 167, 4-(2,3-dihydro-1-benzofuran-5-yl)-N-{4-[3-(hydroxymethyl)phenyl]-6-phenylpyridin-2-yl}-4-oxobutanamide], for which the pIC50 is 6.30 to 7.30. In the case of `O=C(CCC(=O)c1ccc2c(c1)CCO2)Nc1cc(-c2cccc(CCCO)c2)cc(-c2ccccc2)n1` [Example 168, 4-(2,3-dihydro-1-benzofuran-5-yl)-N-{4-[3-(3-hydroxypropyl)phenyl]-6-phenylpyridin-2-yl}-4-oxobutanamide] it was 6.30 to 7.30; in that of `O=C(CCC(=O)c1ccc2c(c1)CCO2)Nc1cc(-c2cccc(C(=O)O)c2)cc(-c2ccccc2)n1` [Example 169, 3-(2-{[4-(2,3-dihydro-1-benzofuran-5-yl)-4-oxobutanoyl]amino}-6-phenylpyridin-4-yl)benzoic acid], 5.00 to 6.30; in that of `COC(=O)c1cccc(-c2cc(NC(=O)CCC(=O)c3ccc4c(c3)CCO4)nc(-c3ccccc3)c2)c1` [Example 170, methyl 3-(2-{[4-(2,3-dihydro-1-benzofuran-5-yl)-4-oxobutanoyl]amino}-6-phenylpyridin-4-yl)benzoate], 5.00 to 6.30. Turning to `CC(=O)c1cccc(-c2cc(NC(=O)CCC(=O)c3ccc4c(c3)CCO4)nc(-c3ccccc3)c2)c1` [Example 171, N-[4-(3-acetylphenyl)-6-phenylpyridin-2-yl]-4-(2,3-dihydro-1-benzofuran-5-yl)-4-oxobutanamide], the pIC50 was 6.30 to 7.30.

For the origin of these results see patent publication US20090048258A1, “Amide Compound” (priority 2005, published 2009).
